# Measured values as given in patent US10501752B2, “Herbicide tolerant cotton event pDAB4468.19.10.3” (Dow AgroSciences LLC, priority 2012, dated 2019).
# Tests used:
# Type in all cases: in vivo, Gossypium hirsutum
# [1] = test system: non-transformed Coker 310 variety of cotton (WT); assay: Butanoic acids of triclopyr and fluroxypyr greenhouse trials, negative control plants (% injury); conditions: 2-3 leaf stage
# Experimental: (§1) Herbicide tolerance was assessed following a single post-emergence application of the two molecules. Seed from cotton event pDAB4468.19.10.3 were heat treated in a water bath at 82.5° C. for 1 minute and then planted in metro mix 360 media and grown in a greenhouse. The temperatures in the greenhouse averaged 27° C. and the photoperiod was set at 16 hours of light and eight hours of dark, with maximum light intensity. Plants were allowed to grow until the 2-3 leaf stage of development and a non-randomized study was conducted with four replications and three treatments for each herbicide. […] In addition, a crop oil concentrate was added to a final concentration of 1.25%. Plants were sprayed in a track sprayer calibrated to deliver 187 L/ha of the formulated technical material. A non-transformed Coker 310 variety of cotton was used as a negative control.
# [2] = test system: cotton event pDAB4468.19.10.3 (aad-12); assay: Tolerance to butanoic acids of triclopyr and fluroxypyr in greenhouse trials (% injury); conditions: 2-3 leaf stage
# Experimental: as §1
# [3] = test system: cotton event pDAB4468.19.10.3; assay: Tolerance to triclopyr and fluroxypyr in greenhouse trials (percent visual injury); conditions: for % Injury: cotton event, 3 leaf stage, greenhouse
# Experimental: (§2) The tolerance of cotton event pDAB4468.19.10.3 to post-emergence applications of the pyridyloxyacetic acid herbicides, triclopyr and fluroxypyr, was studied in greenhouse trials. Herbicide tolerance was assessed following a single post-emergence application of triclopyr or fluroxypyr. Seed from cotton event pDAB4468.19.10.3 were heat treated in a water bath at 82.5° C. for 1 minute and then planted in metro mix 360 media and grown in a greenhouse. The temperatures in the greenhouse averaged 27° C. and the photoperiod was set at 16 hours of light and eight hours of dark, with maximum light intensity. Plants were allowed to grow until the 3 leaf stage of development and a non-randomized study was conducted with three replications and three treatments for each herbicide. Plants were sprayed in a track sprayer calibrated to deliver 187 L/ha of the commercial formulations of triclopyr (Garlon 4TM, Dow AgroSciences, Indianapolis, Ind.) and fluroxypyr ([…], Dow AgroSciences, Indianapolis, Ind.). A non-transformed Coker 310 variety of cotton was used as a negative control.
# [4] = test system: non-transformed Coker 310 variety of cotton; assay: Triclopyr and fluroxypyr greenhouse trials, negative control plants (percent visual injury); conditions: 3 leaf stage
# Experimental: as §2
smiles,measurement,setting,value
"Nc1c(Cl)c(F)nc(OCCCC(=O)O)c1Cl [Fluroxypyr-b, fluroxypyr-B]",% Injury,"[1]; 140 g ai/ha, 1 DAA",21.8a %
same,% Injury,"[1]; 140 g ai/ha, 3 DAA",32.5bc %
same,% Injury,"[1]; 140 g ai/ha, 6 DAA",37.5a %
same,% Injury,"[1]; 140 g ai/ha, 6 HAA",17.8b %
same,% Injury,"[1]; 140 g ai/ha, 14 DAA",56.3b %
same,% Injury,"[1]; 280 g ai/ha, 1 DAA",24.3a %
same,% Injury,"[1]; 280 g ai/ha, 3 DAA",33.8bc %
same,% Injury,"[1]; 280 g ai/ha, 6 DAA",41.3a %
same,% Injury,"[1]; 280 g ai/ha, 6 HAA",21.3ab %
same,% Injury,"[1]; 280 g ai/ha, 14 DAA",62.5ab %
same,% Injury,"[1]; 560 g ai/ha, 1 DAA",22.3a %
same,% Injury,"[1]; 560 g ai/ha, 3 DAA",31.3c %
same,% Injury,"[1]; 560 g ai/ha, 6 DAA",41.3a %
same,% Injury,"[1]; 560 g ai/ha, 6 HAA",20ab %
same,% Injury,"[1]; 560 g ai/ha, 14 DAA",61.3ab %
same,% Injury,"[2]; 140 g ai/ha, 1 DAA",3b %
same,% Injury,"[2]; 140 g ai/ha, 3 DAA",2d %
same,% Injury,"[2]; 140 g ai/ha, 6 DAA",2c %
same,% Injury,"[2]; 140 g ai/ha, 6 HAA",6.5b %
same,% Injury,"[2]; 140 g ai/ha, 14 DAA",0c %
same,% Injury,"[2]; 280 g ai/ha, 1 DAA",2b %
same,% Injury,"[2]; 280 g ai/ha, 3 DAA",2.3d %
same,% Injury,"[2]; 280 g ai/ha, 6 DAA",2.8c %
same,% Injury,"[2]; 280 g ai/ha, 6 HAA",7.8b %
same,% Injury,"[2]; 280 g ai/ha, 14 DAA",0c %
same,% Injury,"[2]; 560 g ai/ha, 1 DAA",3.5b %
same,% Injury,"[2]; 560 g ai/ha, 3 DAA",2d %
same,% Injury,"[2]; 560 g ai/ha, 6 DAA",2.8c %
same,% Injury,"[2]; 560 g ai/ha, 6 HAA",8b %
same,% Injury,"[2]; 560 g ai/ha, 14 DAA",2c %
"Nc1c(Cl)c(F)nc(OCC(=O)O)c1Cl [Fluroxypyr, fluroxypyr]",% Injury,"[3]; 70 g ae/ha, 3 DAA",0.5 e %
same,% Injury,"[3]; 70 g ae/ha, 11 DAA",2.3 b %
same,% Injury,"[3]; 140 g ae/ha, 3 DAA",0.5 e %
same,% Injury,"[3]; 140 g ae/ha, 11 DAA",2.5 b %
same,% Injury,"[3]; 280 g ae/ha, 3 DAA",6.5 d %
same,% Injury,"[3]; 280 g ae/ha, 11 DAA",6.3 a %
same,herbicide level to which the event provides tolerance,[3]; by 3 DAA,up to 280 g ae/ha
same,% Injury,"[4]; 70 g ae/ha, 3 DAA",11.3 c %
same,% Injury,"[4]; 70 g ae/ha, 11 DAA",43.8 ab %
same,% Injury,"[4]; 140 g ae/ha, 3 DAA",27.3 b %
same,% Injury,"[4]; 140 g ae/ha, 11 DAA",36.3 b %
same,% Injury,"[4]; 280 g ae/ha, 3 DAA",33.3 a %
same,% Injury,"[4]; 280 g ae/ha, 11 DAA",43.8 ab %
same,% Injury,"[1]; 140 g ai/ha, 1 DAA",24.3a %
same,% Injury,"[1]; 140 g ai/ha, 3 DAA",32.5bc %
same,% Injury,"[1]; 140 g ai/ha, 6 DAA",38.8a %
same,% Injury,"[1]; 140 g ai/ha, 6 HAA",23.8a %
same,% Injury,"[1]; 140 g ai/ha, 14 DAA",60ab %
same,% Injury,"[1]; 280 g ai/ha, 1 DAA",25a %
same,% Injury,"[1]; 280 g ai/ha, 3 DAA",37.5ab %
same,% Injury,"[1]; 280 g ai/ha, 6 DAA",38.8a %
same,% Injury,"[1]; 280 g ai/ha, 6 HAA",22.5ab %
same,% Injury,"[1]; 280 g ai/ha, 14 DAA",65ab %
same,% Injury,"[1]; 560 g ai/ha, 1 DAA",23.5a %
same,% Injury,"[1]; 560 g ai/ha, 3 DAA",38.8a %
same,% Injury,"[1]; 560 g ai/ha, 6 DAA",41.3a %
same,% Injury,"[1]; 560 g ai/ha, 6 HAA",22.5ab %
same,% Injury,"[1]; 560 g ai/ha, 14 DAA",67.5a %
same,% Injury,"[2]; 140 g ai/ha, 1 DAA",21.5a %
same,% Injury,"[2]; 140 g ai/ha, 3 DAA",8.8c %
same,% Injury,"[2]; 140 g ai/ha, 6 DAA",7.8b %
same,% Injury,"[2]; 140 g ai/ha, 6 HAA",19a %
same,% Injury,"[2]; 140 g ai/ha, 14 DAA",21.3ab %
same,% Injury,"[2]; 280 g ai/ha, 1 DAA",19.8a %
same,% Injury,"[2]; 280 g ai/ha, 3 DAA",15.3b %
same,% Injury,"[2]; 280 g ai/ha, 6 DAA",11.5a %
same,% Injury,"[2]; 280 g ai/ha, 6 HAA",14a %
same,% Injury,"[2]; 280 g ai/ha, 14 DAA",17.5b %
same,% Injury,"[2]; 560 g ai/ha, 1 DAA",21.5a %
same,% Injury,"[2]; 560 g ai/ha, 3 DAA",21.3a %
same,% Injury,"[2]; 560 g ai/ha, 6 DAA",14.3a %
same,% Injury,"[2]; 560 g ai/ha, 6 HAA",17a %
same,% Injury,"[2]; 560 g ai/ha, 14 DAA",25a %
